Patent US4599352A, “Antineoplastic platinum (IV) complexes and compositions” (priority 1984, dated 1986)

Legend:
[1] = system: IP-Implanted L1210 Leukemia; test: Dose-response against IP-implanted L1210 leukemia, IP treatment Days 1, 5 and 9, 30-day test (Table 2); assay type: in vivo, CD2Fl male mice; conditions: for Optimal dose (dose producing best therapeutic response): day 1, 5 and 9 schedule
Description: (§1) Biological properties of the compounds of the present invention were determined following the protocol described in Cancer Chemotherapy Reports, Vol. 3, No. 3, 1972 which report is incorporated herein by reference.
(§2) This experiment (A8-00005 3LE31) was conducted at the Southern Research Institute, Birmingham, Ala. under the supervision of Dr. Daniel Griswold. The protocols were the same as those published previously (Geran et al., Cancer Chemotherapy Reports 3: No. 2, 1972 [Attachment 11]). 10^5 cells were implanted intraperitoneally in CD2Fl male mice on Day 0. Drug treatments were given intraperitoneally as single injections at the doses indicated on Days 1, 5 and 9 after tumor implantation. The diluent was saline except for NSC-271674 where 5% sodium bicarbonate was used. All drugs were prepared fresh on the day of injection, and all were administered in solution. Median survival times for both control and drug-treated mice were determined and expressed as a percentage (% T/C). Body weights were determined on Day 5 and expressed as a weight difference (body weight of the drug-treated animals minus that of the control animals in grams) (T-C). The diluent control animals lived a median of 8.4 days and gained 1.9 grams by Day 5 in this experiment. All animals, including Day 30 survivors, were used in the calculation of median survival times. The log10 change in tumor burden refers to the net log change in viable tumor cell population at the end of therapy (Rx) as compared to the start of therapy; e.g., a […] means that there was a […] and a 3 log change means there was a 1000-fold increase in tumor burden at the end of therapy. The tumor burden at the start of therapy was about 6.1×10^5 cells in this experiment.

IP L1210 = test: Activity against IP-implanted L1210 leukemia sensitive to cisplatin, 30 day test (Table 3); assay type: in vivo, Female CD2Fl mice
Description: as §1
(§3) Other known mechanisms of resistance for other classes of agents, such as gene amplification or target enzyme change or amplication, also need to be explored. The experiments summarized in Table 3 were conducted at the same time against both sublines using the same drug preparations. […] These experiments were repeated in a second laboratory as documented in Table 4. However, in these experiments the animals were held for 60 rather than 30 days to evaluate whether or not long-term survivors are produced after drug treatment in a more challenging setting.
as §2
These experiments (A8-00008 3LE31 and A8-00001 3DP31) were conducted concurrently at the Southern Research Institute, Birmingham, Ala. under the supervision of Dr. Daniel Griswold. See Table 4 for experimental details. The diluent control animals bearing L1210 leukemia lived a median of 8.6 days and gained 1.3 grams by Day 5. […] Female CD2Fl mice were used for these experiments.

IP L1210/Cisplatin = test: Activity against IP-implanted L1210/Cisplatin leukemia resistant to cisplatin, 30 day test (Table 3); assay type: in vivo, Female CD2Fl mice
Description: as §1, §3
This experiment (A8-00005 3LE31) was conducted at the Southern Research Institute, Birmingham, Ala. under the supervision of Dr. Daniel Griswold. The protocols were the same as those published previously (Geran et al., Cancer Chemotherapy Reports 3: No. 2, 1972 [Attachment 11]). 10^5 cells were implanted intraperitoneally in CD2Fl male mice on Day 0. Drug treatments were given intraperitoneally as single injections at the doses indicated on Days 1, 5 and 9 after tumor implantation. The diluent was saline except for NSC-271674 where 5% sodium bicarbonate was used. All drugs were prepared fresh on the day of injection, and all were administered in solution. Median survival times for both control and drug-treated mice were determined and expressed as a percentage (% T/C). Body weights were determined on Day 5 and expressed as a weight difference (body weight of the drug-treated animals minus that of the control animals in grams) (T-C). The diluent control animals lived a median of 8.4 days and gained 1.9 grams by Day 5 in this experiment. All animals, including Day 30 survivors, were used in the calculation of median survival times. The log10 change in tumor burden refers to the net log change in viable tumor cell population at the end of therapy (Rx) as compared to the start of therapy; e.g., a […] means that there was a […] and a 3 log change means there was a 1000-fold increase in tumor burden at the end of therapy. The tumor burden at the start of therapy was about 6.1×10^5 cells in this experiment. […]

N.N.[Cl][Pt][Cl] [Cisplatin, cis-diamminedichloroplatinum (II), reference compound] was tested, and the “30-Day Survivors/Total” value ([1]; 1.25 mg/kg/dose IP) was 0/6, the “Approx. Log10 Change in Tumor Burden at End of Rx” value ([1]; 1.25 mg/kg/dose IP) was ~2.9 log10 and the “Body Weight Difference” value ([1]; 1.25 mg/kg/dose IP) was -1.0 Grams. For the same compound, the “Median % T/C” value ([1]; 1.25 mg/kg/dose IP) was 123%, the “30-Day Survivors/Total” value ([1]; 5 mg/kg/dose IP) was 0/6 and the “Approx. Log10 Change in Tumor Burden at End of Rx” value ([1]; 5 mg/kg/dose IP) was ~2.4 log10. For the same compound, the “Body Weight Difference” value ([1]; 5 mg/kg/dose IP) was -1.4 Grams, the “Median % T/C” value ([1]; 5 mg/kg/dose IP) was 152% and the “30-Day Survivors/Total” value ([1]; 10 mg/kg/dose IP) was 0/6. The “Approx. Log10 Change in Tumor Burden at End of Rx” value ([1]; 10 mg/kg/dose IP) was ~1.9 log10, the “Body Weight Difference” value ([1]; 10 mg/kg/dose IP) was -1.3 Grams and the “Median % T/C” value ([1]; 10 mg/kg/dose IP) was 166%. For the same compound, the “30-Day Survivors/Total” value ([1]; 20 mg/kg/dose IP) was 3/6, the “Approx. Log10 Change in Tumor Burden at End of Rx” value ([1]; 20 mg/kg/dose IP) was ~-5.7 log10 and the “Body Weight Difference” value ([1]; 20 mg/kg/dose IP) was -5.0 Grams. For the same compound, the “Median % T/C” value ([1]; 20 mg/kg/dose IP) was 357%, the “Log reduction in tumor cell burden at the end of therapy” value ([1]; best dose) was -5.7 log10 and the “Optimal dose (dose producing best therapeutic response)” value [1] was 20 mg/kg/injection. For the same compound, the “30 Day Survivors/Total” value (IP L1210; 1.25 mg/kg/dose) was 0/6, the “Approx. Log10 Change in Tumor Burden at End of RX” value (IP L1210; 1.25 mg/kg/dose) was ~3.0 log10 and the “Median % T/C” value (IP L1210; 1.25 mg/kg/dose) was 116%. For the same compound, the “30 Day Survivors/Total” value (IP L1210; 5 mg/kg/dose) was 0/6, the “Approx. Log10 Change in Tumor Burden at End of RX” value (IP L1210; 5 mg/kg/dose) was ~2.2 log10 and the “Median % T/C” value (IP L1210; 5 mg/kg/dose) was 162%. For the same compound, the “30 Day Survivors/Total” value (IP L1210; 10 mg/kg/dose) was 3/6, the “Approx. Log10 Change in Tumor Burden at End of RX” value (IP L1210; 10 mg/kg/dose) was ~-5.9 log10 and the “Median % T/C” value (IP L1210; 10 mg/kg/dose) was 348%. For the same compound, the “30 Day Survivors/Total” value (IP L1210; 20 mg/kg/dose) was 0/6, the “Approx. Log10 Change in Tumor Burden at End of RX” value (IP L1210; 20 mg/kg/dose) was ~2.4 log10 and the “Median % T/C” value (IP L1210; 20 mg/kg/dose) was 148%. For the same compound, the “30 Day Survivors/Total” value (IP L1210/Cisplatin; 1.25 mg/kg/dose) was 0/6, the “Approx. Log10 Change in Tumor Burden at End of RX” value (IP L1210/Cisplatin; 1.25 mg/kg/dose) was ~3.0 log10 and the “Median % T/C” value (IP L1210/Cisplatin; 1.25 mg/kg/dose) was 104%. The “30 Day Survivors/Total” value (IP L1210/Cisplatin; 5 mg/kg/dose) was 0/6, the “Approx. Log10 Change in Tumor Burden at End of RX” value (IP L1210/Cisplatin; 5 mg/kg/dose) was ~3.1 log10 and the “Median % T/C” value (IP L1210/Cisplatin; 5 mg/kg/dose) was 101%. The “30 Day Survivors/Total” value (IP L1210/Cisplatin; 10 mg/kg/dose) was 0/6, the “Approx. Log10 Change in Tumor Burden at End of RX” value (IP L1210/Cisplatin; 10 mg/kg/dose) was ~2.9 log10 and the “Median % T/C” value (IP L1210/Cisplatin; 10 mg/kg/dose) was 108%. The “30 Day Survivors/Total” value (IP L1210/Cisplatin; 20 mg/kg/dose) was 0/6, the “Median % T/C” value (IP L1210/Cisplatin; 20 mg/kg/dose) was 86% and the “Activity against L1210/cisplatin” value (IP L1210/Cisplatin; mouse, in vivo) was “refractory”.

With [Cl][Pt-2]1([Cl])([Cl])([Cl])[NH2+][C@H]2CCCC[C@@H]2[NH2+]1 [trans (d), (1S, 2S)-Tetrachloro-trans-1,2-cyclohexanediamine platinum (IV)] the “30-Day Survivors/Total” value ([1]; 1 mg/kg/dose IP) was 0/6, the “Body Weight Difference” value ([1]; 1 mg/kg/dose IP) was -0.3 Grams and the “Median % T/C” value ([1]; 1 mg/kg/dose IP) was 119%. The “30-Day Survivors/Total” value ([1]; 2 mg/kg/dose IP) was 0/6, the “Approx. Log10 Change in Tumor Burden at End of Rx” value ([1]; 2 mg/kg/dose IP) was ~2.7 log10 and the “Body Weight Difference” value ([1]; 2 mg/kg/dose IP) was -0.6 Grams. For the same compound, the “Median % T/C” value ([1]; 2 mg/kg/dose IP) was 134%, the “30-Day Survivors/Total” value ([1]; 4 mg/kg/dose IP) was 1/6 and the “Approx. Log10 Change in Tumor Burden at End of Rx” value ([1]; 4 mg/kg/dose IP) was ~-1.1 log10. The “Body Weight Difference” value ([1]; 4 mg/kg/dose IP) was -0.9 Grams, the “Median % T/C” value ([1]; 4 mg/kg/dose IP) was 211% and the “30-Day Survivors/Total” value ([1]; 8 mg/kg/dose IP) was 3/6. For the same compound, the “Approx. Log10 Change in Tumor Burden at End of Rx” value ([1]; 8 mg/kg/dose IP) was ~-5.7 log10, the “Body Weight Difference” value ([1]; 8 mg/kg/dose IP) was -1.7 Grams and the “Median % T/C” value ([1]; 8 mg/kg/dose IP) was 357%. For the same compound, the “Body Weight Difference” value ([1]; 8 mg/kg/dose IP, listed as trans d) was “less than -4 Grams”, the “30-Day Survivors/Total” value ([1]; 16 mg/kg/dose IP) was 1/6 and the “Approx. Log10 Change in Tumor Burden at End of Rx” value ([1]; 16 mg/kg/dose IP) was ~-2.0 log10. The “Body Weight Difference” value ([1]; 16 mg/kg/dose IP) was -4.9 Grams, the “Median % T/C” value ([1]; 16 mg/kg/dose IP) was 226% and the “Optimal dose (dose producing best therapeutic response)” value [1] was 8 mg/kg/injection. The “30 Day Survivors/Total” value (IP L1210; 1 mg/kg/dose) was 0/6, the “Approx. Log10 Change in Tumor Burden at End of RX” value (IP L1210; 1 mg/kg/dose) was ~3.0 log10 and the “Median % T/C” value (IP L1210; 1 mg/kg/dose) was 113%. For the same compound, the “30 Day Survivors/Total” value (IP L1210; 2 mg/kg/dose) was 0/6, the “Approx. Log10 Change in Tumor Burden at End of RX” value (IP L1210; 2 mg/kg/dose) was ~2.5 log10 and the “Median % T/C” value (IP L1210; 2 mg/kg/dose) was 144%. For the same compound, the “30 Day Survivors/Total” value (IP L1210; 4 mg/kg/dose) was 2/6, the “Approx. Log10 Change in Tumor Burden at End of RX” value (IP L1210; 4 mg/kg/dose) was ~-1.2 log10 and the “Median % T/C” value (IP L1210; 4 mg/kg/dose) was 209%. For the same compound, the “30 Day Survivors/Total” value (IP L1210; 8 mg/kg/dose) was 3/6, the “Approx. Log10 Change in Tumor Burden at End of RX” value (IP L1210; 8 mg/kg/dose) was ~-5.9 log10 and the “Median % T/C” value (IP L1210; 8 mg/kg/dose) was 348%. The “30 Day Survivors/Total” value (IP L1210; 16 mg/kg/dose) was 0/6, the “Median % T/C” value (IP L1210; 16 mg/kg/dose) was 96% and the “30 Day Survivors/Total” value (IP L1210/Cisplatin; 1 mg/kg/dose) was 0/6. For the same compound, the “Approx. Log10 Change in Tumor Burden at End of RX” value (IP L1210/Cisplatin; 1 mg/kg/dose) was ~3.1 log10, the “Median % T/C” value (IP L1210/Cisplatin; 1 mg/kg/dose) was 101% and the “30 Day Survivors/Total” value (IP L1210/Cisplatin; 2 mg/kg/dose) was 0/6. For the same compound, the “Approx. Log10 Change in Tumor Burden at End of RX” value (IP L1210/Cisplatin; 2 mg/kg/dose) was ~2.8 log10, the “Median % T/C” value (IP L1210/Cisplatin; 2 mg/kg/dose) was 116% and the “30 Day Survivors/Total” value (IP L1210/Cisplatin; 4 mg/kg/dose) was 0/6. For the same compound, the “Approx. Log10 Change in Tumor Burden at End of RX” value (IP L1210/Cisplatin; 4 mg/kg/dose) was ~2.4 log10, the “Median % T/C” value (IP L1210/Cisplatin; 4 mg/kg/dose) was 139% and the “30 Day Survivors/Total” value (IP L1210/Cisplatin; 8 mg/kg/dose) was 3/6. For the same compound, the “Approx. Log10 Change in Tumor Burden at End of RX” value (IP L1210/Cisplatin; 8 mg/kg/dose) was ~-5.9 log10, the “Median % T/C” value (IP L1210/Cisplatin; 8 mg/kg/dose) was 322% and the “30 Day Survivors/Total” value (IP L1210/Cisplatin; 16 mg/kg/dose) was 1/6. For the same compound, the “Median % T/C” value (IP L1210/Cisplatin; 16 mg/kg/dose) was 143%.
